Source: PubChem BioAssay (NCI)
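Tested at 5 concentrations; 48 h exposure; 96-well plates; endpoints linearly interpolated, else capped at highest concentration. TGI: total growth inhibition.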

Assays:
Assay in all cases: DTP human tumour cell line panel, 48 h
ACHN renal = tested on: ACHN renal
BT-549 breast = tested on: BT-549 breast
COLO 205 colon = tested on: COLO 205 colon
HCT-116 colon = tested on: HCT-116 colon
HOP-62 NSCLC = tested on: HOP-62 NSCLC
LOX IMVI melanoma = tested on: LOX IMVI melanoma
M14 melanoma = tested on: M14 melanoma
MDA-MB-435 = tested on: MDA-MB-435
NCI-H226 lung = tested on: NCI-H226 lung
NCI-H522 lung = tested on: NCI-H522 lung
OVCAR-4 ovarian = tested on: OVCAR-4 ovarian
OVCAR-8 ovarian = tested on: OVCAR-8 ovarian
SK-OV-3 ovarian = tested on: SK-OV-3 ovarian
SN12C renal = tested on: SN12C renal
SW-620 colon = tested on: SW-620 colon
TK-10 renal = tested on: TK-10 renal
UACC-62 melanoma = tested on: UACC-62 melanoma
SF-539 CNS = tested on: SF-539 CNS

SMILES | TGI (ACHN renal) [µM] | TGI (BT-549 breast) [µM] | TGI (COLO 205 colon) [µM] | TGI (HCT-116 colon) [µM] | TGI (HOP-62 NSCLC) [µM] | TGI (LOX IMVI melanoma) [µM] | TGI (M14 melanoma) [µM] | TGI (MDA-MB-435) [µM] | TGI (NCI-H226 lung) [µM] | TGI (NCI-H522 lung) [µM] | TGI (OVCAR-4 ovarian) [µM] | TGI (OVCAR-8 ovarian) [µM] | TGI (SK-OV-3 ovarian) [µM] | TGI (SN12C renal) [µM] | TGI (SW-620 colon) [µM] | TGI (TK-10 renal) [µM] | TGI (UACC-62 melanoma) [µM] | TGI (SF-539 CNS) [µM]
CC1=C(C)C2(C#N)C(=O)N3C(=NC(c4ccco4)NC3c3ccco3)C2(C#N)C(c2ccco2)N1 (stereo unspecified) | > 100 | > 100 | > 100 | > 100 | > 100 | > 100 | > 100 | > 100 | > 100 | > 100 | > 100 | > 100 | > 100 | > 100 | > 100 | > 100 | > 100 | –
O=[N+]([O-])c1ccccc1S(=O)(=O)c1cccc2c1NCCC2 | > 100 | > 100 | > 100 | > 100 | > 100 | > 100 | > 100 | > 100 | > 100 | – | > 100 | > 100 | > 100 | > 100 | > 100 | > 100 | > 100 | > 100
C=C(C)C1Cc2c(cc3c(c2O)c(=O)c2ccccc2n3C)O1 (stereo unspecified) | 35.7 | 3.28 | 12.3 | 4.94 | 25.2 | – | 10.6 | 20.7 | 6.77 | – | 22.3 | 5.67 | 13.5 | 7.52 | 5.68 | 27 | 7.57 | 5.99
CC(C)(C)OC(=O)NC(Cc1ccc(OC(C)(C)C)cc1)C(=O)N[C@H]1CC[C@H](C(=O)O)C1 (stereo partly specified) | > 100 | > 100 | > 100 | > 100 | > 100 | > 100 | > 100 | > 100 | > 100 | > 100 | – | > 100 | > 100 | > 100 | > 100 | > 100 | – | > 100
CSc1ncc2c(C#N)c3n(C)c4ccccc4n3c(=O)c2n1 | > 100 | > 100 | > 100 | > 100 | > 100 | > 100 | > 100 | > 100 | > 100 | – | > 100 | > 100 | > 100 | > 100 | > 100 | > 100 | > 100 | > 100
COC(=O)NCCc1[nH]nc2c1C(=O)C=C(Nc1ccccc1OC)C2=O | > 100 | > 100 | 61.6 | 38.1 | > 100 | 69.9 | 62.9 | 30.8 | – | 78.2 | 57.7 | 35.1 | > 100 | > 100 | 47.8 | > 100 | 39.9 | 34.4
Cc1ccc(NC(=O)CC(=O)N2N=C(N(c3ccccc3)c3ccccc3)CC2c2ccccc2)cc1 (stereo unspecified) | > 100 | > 100 | > 100 | > 100 | > 100 | – | > 100 | > 100 | > 100 | > 100 | > 100 | > 100 | > 100 | – | > 100 | > 100 | > 100 | > 100
